Measurements: patent US20230404989A1, “GRK2 INHIBITION BY PAROXETINE AMELIORATES OSTEOARTHRITIS” (THE PENN STATE RESEARCH FOUNDATION, priority 2020, published 2023)

Experiments:
DMM mice [1] = assay: DMM drug treatment study: OARSI scoring and histomorphometry of knee cartilage; type: in vivo, mouse
Method: Drug treatment studies: In twelve-week old male wild type C57BL/6 mice that received DMM surgeries, vehicle (PBS), paroxetine (5 mg/kg/day), fluoxetine (5 mg/kg/day), gallein (10 mg/kg/day) or indomethacin (2.5 mg/kg/day) were administered daily by ip injection. Drug treatment was initiated 8 weeks following DMM to determine the role of GRK2 signaling in the progression of OA.
Twelve-week-old male mice were administered DMM surgery to the right knee and sham surgery to the left knee as described (S. S. Glasson, Osteoarthritis. Cartilage. 15, 1061-1069 (2007)). Briefly, mice were anesthetized via intraperitoneal injection of ketamine (60 mg/kg) and xylazine (4 mg/kg), and a 5-mm-long incision was made on the medial side of the knee. Under a dissecting microscope, an incision was made along the medial side of the patellar tendon, opening the joint space. Using a #11 scalpel, the medial meniscotibial ligament (MMTL) was transected, enabling the medial meniscus to move freely. A similar skin incision was made in sham knees, but the joint structure was not disturbed. For the sham group, both right and left knees had sham surgeries. After surgery, 4-0 silk sutures were used to close the incision using an interrupted pattern. Mice were provided analgesia via intraperitoneal injection of buprenorphine (0.5 mg/kg) every 12 hours for 72 hours, and sutures were removed after 7 days. Mice were sacrificed, at the indicated time points, by anesthesia followed with whole animal perfusion using 10% NBF, knees were harvested and fixed for 7 days in 10% NBF, decalcified for 7 days in 10% w/v EDTA, embedded in paraffin, and 10-μm sections were cut and mounted for Safranin-O/Fast Green or IF staining.
Semi-quantitative histopathologic grading was performed using a derivative of the Chambers' scoring system that has been established by the OARSI histopathology initiative as the standard method for grading of mouse cartilage degeneration. Based on this system, cartilage grading was carried out using Safranin-O/Fast Green-stained midsagittal sections. Three sections from representative levels (50 μm apart) of the medial compartment of the joint were selected for each sample and, which were evaluated in a randomized, blinded manner by 3 laboratory members. The 3 scores were averaged to calculate the section score, and the sample score was then calculated by averaging the scores obtained from the three levels. Grading was performed using the following scale: 0=normal cartilage, 0.5=loss of proteoglycan stain without cartilage damage, 1=mild superficial fibrillation, 2=fibrillation and/or clefting extending below the superficial zone, 3=mild (<25%) loss of cartilage, 4=moderate (25-50%) loss of cartilage, 5=severe (50-75%) loss of uncalcified cartilage, and 6=eburnation with >75% loss of cartilage. Grading was performed by three blinded observers (F.K., M.J.Z., and E.R.S.). Observer agreement was evaluated in pairs via calculation of a weighted kappa coefficient, using Fleiss-Cohen weights, as we have described. The F.K. versus M.J.Z. coefficient was 0.92, the F.K. versus E.R.S. coefficient was 0.94, and the M.J.Z. versus E.R.S coefficient was 0.89, all indicative of strong agreement between the observers.
Using Safranin-O/Fast Green-stained sections, the OsteoMetrics system was used to quantify the above parameters on three sections from representative levels (50 μm apart) of the medial compartment of the joint for each sample. Live images of the center of the knee joint were collected through an Olympus microscope (10× objective) outfitted with a camera, a stylus was used to trace the regions of interest (ROIs). A blinded observer quantified uncalcified articular cartilage area, total chondrocyte number and matrix-producing chondrocyte number using the built-in area calculation algorithms and quantification functions of the OsteoMeasure® system. […]

[2] = tested on: Gas activity (cAMP content in cartilage); assay: cAMP assay in tibial articular cartilage of drug-treated DMM mice; type: in vivo, mouse; conditions: daily ip week 8 to 12
Method: Drug treatment studies: In twelve-week old male wild type C57BL/6 mice that received DMM surgeries, vehicle (PBS), paroxetine (5 mg/kg/day), fluoxetine (5 mg/kg/day), gallein (10 mg/kg/day) or indomethacin (2.5 mg/kg/day) were administered daily by ip injection. Drug treatment was initiated 8 weeks following DMM to determine the role of GRK2 signaling in the progression of OA. Short term drug treatment study: To evaluate the acute effect of drug treatments, GRK2^f/f mice received sham or DMM surgery followed by treatment with vehicle, paroxetine, gallein, fluoxetine, or indomethacin with the doses indicated above for 1 week beginning at 8 weeks post DMM. All mice were sacrificed 9 weeks post DMM, 21 weeks of age, for analysis of OA progression. Gas activity was measured by quantifying cAMP content in cartilage pooled from 3 mice. Tibial cartilage was dissected out and snap frozen in liquid Nitrogen. As positive control, tibial cartilage obtained from normal mice was treated with 0.5 mM 3-isobutyl-1-methylxanthine (IBMX) for 30 minutes, followed by 0.1 mM Forskolin for 15 minutes, then snap frozen in liquid Nitrogen. For human cartilage cAMP content, 70 mg frozen cartilage were used. Frozen cartilage was pulverized using 500 μL lysis buffer as we have previously described (H. K. Le Bleu, Anal Biochem, 518, 134-138 (2017)). cAMP content was quantified using the Cyclic AMP XP Assay kit (Cell Signaling, #4339) and following manufacturer's protocol, with 0.5 mM IBMX added to the lysis buffer to prevent phosphodiesterase mediated cAMP degradation during the extraction process. cAMP levels in different groups were normalized to that of sham mice or the vehicle treated human cartilage.

DMM mice [3] = assay: Anterior femoral synovial membrane thickness in DMM mice; type: in vivo, mouse; conditions: daily ip week 8 to 12, versus vehicle
Method: Drug treatment studies: In twelve-week old male wild type C57BL/6 mice that received DMM surgeries, vehicle (PBS), paroxetine (5 mg/kg/day), fluoxetine (5 mg/kg/day), gallein (10 mg/kg/day) or indomethacin (2.5 mg/kg/day) were administered daily by ip injection. Drug treatment was initiated 8 weeks following DMM to determine the role of GRK2 signaling in the progression of OA. Using Safranin-O/Fast Green-stained sections, the OsteoMetrics system was used to quantify the above parameters on three sections from representative levels (50 μm apart) of the medial compartment of the joint for each sample. Live images of the center of the knee joint were collected through an Olympus microscope (10× objective) outfitted with a camera, a stylus was used to trace the regions of interest (ROIs). A blinded observer quantified uncalcified articular cartilage area, total chondrocyte number and matrix-producing chondrocyte number using the built-in area calculation algorithms and quantification functions of the OsteoMeasure® system. […] The calcified cartilage was determined with a line drawn along the tide mark, which is the naturally occurring line separating the calcified and uncalcified regions of the articular cartilage. A second line was drawn at the chondro-osseous junction where the calcified cartilage meets the subchondral bone. The uncalcified cartilage area was determined by subtracting the calcified cartilage area from the total area of cartilage. Total chondrocyte number and matrix-producing chondrocyte number were counted within the uncalcified cartilage region using count functions within the histomorphometry system. Matrix-producing chondrocytes were counted based on the region of Safranin-O staining within the extracellular matrix surrounding the articular chondrocyte, indicating anabolic signaling to maintain matrix homeostasis. Similarly, the anterior femoral synovial thickness was measured using OsteoMeasure® software. Synovial membrane thickness extending from anterior horn of the medial meniscus to the femur was determined by drawing a line from the inner insertion point on the femur towards the attachment on the meniscus. A second line was drawn from the outer insertion of the femur towards the attachment to the meniscus. The synovial thickness was calculated by dividing total synovial area by synovial perimeter.

GRK2 = biological target: T1, GRK2 (Homo sapiens, UniProt P25098); conditions: from cited literature; cited from earlier work
T1 sequence (P25098 1-689): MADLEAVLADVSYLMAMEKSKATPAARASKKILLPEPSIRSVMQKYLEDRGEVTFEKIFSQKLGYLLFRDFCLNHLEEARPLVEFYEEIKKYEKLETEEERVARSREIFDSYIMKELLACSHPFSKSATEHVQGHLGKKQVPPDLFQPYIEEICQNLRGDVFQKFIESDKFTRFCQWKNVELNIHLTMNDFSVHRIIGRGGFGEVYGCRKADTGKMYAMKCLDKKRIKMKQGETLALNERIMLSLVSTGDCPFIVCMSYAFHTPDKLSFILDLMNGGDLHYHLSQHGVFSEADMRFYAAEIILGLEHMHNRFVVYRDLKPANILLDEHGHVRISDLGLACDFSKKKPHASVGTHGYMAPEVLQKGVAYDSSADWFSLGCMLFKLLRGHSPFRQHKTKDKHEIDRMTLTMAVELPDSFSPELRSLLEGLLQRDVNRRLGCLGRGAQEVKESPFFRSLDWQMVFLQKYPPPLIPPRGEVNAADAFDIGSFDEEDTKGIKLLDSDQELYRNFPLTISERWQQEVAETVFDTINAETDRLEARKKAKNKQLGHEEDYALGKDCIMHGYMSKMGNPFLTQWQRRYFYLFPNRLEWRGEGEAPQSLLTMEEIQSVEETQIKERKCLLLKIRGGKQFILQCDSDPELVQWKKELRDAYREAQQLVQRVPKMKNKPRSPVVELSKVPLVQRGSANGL

DMM mice [4] = assay: DMM mice treated with PTH, paroxetine or their combination: histology and histomorphometry (Example 1); type: in vivo, mouse; conditions: treatment week 8 to 12, PTH sc 40 μg/kg/day, paroxetine ip 5 mg/kg/day
Method: Methods: Destabilization of the medial meniscus (DMM) surgery was used to simulate clinical post-traumatic OA. First, we determined the role of GRK2 inhibition in PTH1R Gas-cAMP signaling: 12 week old male mice underwent sham or DMM surgery and were treated with either vehicle or the GRK2 inhibitor “paroxetine” (ip, 5 mg/kg/day), treatment was initiated at the time of surgery and continued daily until 8 weeks. Knees were harvested and articular cartilage was obtained for ex vivo analysis of Gas activity. In ex vivo culture, cartilage explants were treated with PTH as an agonist to stimulate PTH1R-Ga-cAMP signaling. Thirty minutes following PTH stimulation, cartilage tissue was homogenized and cAMP levels were measured. Then, we determined the role of GRK2 inhibition in recovering or even potentiating PTH1R signaling in OA cartilage: 12 week old male mice underwent sham or DMM surgery, and received treatment with vehicle, PTH (sc, 40 μg/kg/day) alone, the GRK2 inhibitor “paroxetine3” (ip, 5 mg/kg/day) alone, or their combination. Treatment was initiated at week 8 following DMM surgery, where OA is in progress, and continued until week 12 where mice were sacrificed. Knees were harvested, paraffin embedded, sectioned and stained with safranin-o and fast green for histological evaluation, OARSI scoring, and histomorphometric analysis. Results are expressed as mean values+s.e.m. with an N=5-8 mice per experimental group. Statistical analyses were performed using one ANVOA with P<0.05 representing statistical significance.

DMM mice [5] = assay: Paroxetine combined with PTH in DMM mice: Micro-CT of subchondral bone; type: in vivo, mouse; conditions: daily from 8 weeks, harvest 12 weeks after surgery
[6] = daily ip week 8 to 12, versus vehicle

Compound | cartilage degeneration (Safranin-O and Fast Green histology) (DMM mice [1]; daily ip week 8 to 12) | chondro-protective and matrix-regenerative effects (overall) (DMM mice [1]; daily ip week 8 to 12) | total number of chondrocytes (DMM mice [1]; daily ip week 8 to 12) | uncalcified cartilage area (DMM mice [1]; daily ip week 8 to 12) | OARSI score (DMM mice [1]; [6]) | number of matrix producing chondrocytes (DMM mice [1]; [6]) | cAMP levels in the articular cartilage [2] | synovial membrane thickness (DMM mice [3]) | GRK2 inhibitory effect (GRK2) | chondrocyte number (DMM mice [4]) | number of matrix-producing (anabolic) chondrocytes (DMM mice [4]) | uncalcified cartilage area (DMM mice [4]) | effect on the subchondral bone of OA mice (plate thickness, BMD, BV/TV, Tb.Th, osteophytes) (DMM mice [5])
CNCCC(Oc1ccc(C(F)(F)F)cc1)c1ccccc1 (stereo not shown) [fluoxetine] | progressive cartilage degeneration | lacks chondro-protective and matrix-regenerative effects | only mild preservation | no preservation | high | low | not different from vehicle treated mice | attenuated | lacks any GRK2-inhibitory effects |  |  |  | 
COc1ccc2c(c1)c(CC(=O)O)c(C)n2C(=O)c1ccc(Cl)cc1 [indomethacin] | progressive cartilage degeneration | no chondro-protective or matrix-regenerative effects |  |  |  |  |  | significantly reduced |  |  |  |  | 
parathyroid hormone [PTH] |  |  |  |  |  |  |  |  |  | increased | particular increase | increased | deleterious effects
